For assay [1], the target named is Cathepsin D (Homo sapiens, UniProt P07339). Description: Cathepsin-D Assay: The following reagents were used in this assay: Na+-Acetate pH 5.0; 1% Brij-35; Dimethyl Sulfoxide (DMSO); Purified human Cathepsin-D (>95% pure); Aspartyl protease peptide substrate AC-Cys(Eu_Chelate)-Gly-Lys-Pro_ile_leu_phe-Phe-Arg-Leu-Lys(QSY7)-ASP-ASP-NH2.As noted above, certain compounds of the invention exhibit good selectivity of BACE-1 over Cathepsin-D. A homogeneous ….
Description: This substrate contains an C-terminal QSY7 moiety that serves as a quencher of the N-terminal Europium fluorophore (620 nm Em). In the absence of enzyme activity, 620 nm fluorescence is low in the assay and increased linearly over 1 hour in the presence of uninhibited Cathepsin-D enzyme. Inhibition of Cathespin D cleavage of the Eu-Aspartyl Protease-QSY7 substrate by inhibitors is manifested as a suppression of 620 nm fluorescence.

Assay [2] concerns the target Beta-secretase 1 (Homo sapiens, UniProt P56817). Description: HTRF FRET Assay: The compounds of the invention were determined to be potent inhibitors of BACE-1 using the following assay.The following reagents were used in this assay. Na+-Acetate pH 5.0; 1% Brij-35; Glycerol; Dimethyl Sulfoxide (DMSO); Recombinant human soluble BACE-1 catalytic domain (>95% pure); APP Swedish mutant peptide substrate (QSY7-APPswe-Eu): QSY7-[…]-Europium-amide.A homogeneous time-resolved FRET assay can be used to determine IC50 values for inhibitors of the soluble human BACE-1 catalytic domain. This assay monitors the increase of 620 nm fluorescence that resulted from BACE-1 cleavage of an APPswedish APPswe mutant peptide FRET substrate (QSY7-[…]-Europium-amide). This substrate contains an N-terminal QSY7 moiety that serves as a quencher of the C-terminal Europium fluorophore (620 nm Em). In the absence of enzyme activity, 620 nm fluorescence is low in the assay and increased linearly over 3 hours in the presence of uninhibited BACE-1 enzyme. Inhibition of BACE-1 cleavage of the QSY7-APPswe-Eu substrate by inhibitors is manifested as a suppression of 620 nm fluorescence. (Time-resolved FRET reads energy transfer from a long-lived donor to a nearby acceptor.)

The target in assay [3] is T1, Beta-secretase 2 (Homo sapiens, UniProt Q9Y5Z0).
T1 sequence (Q9Y5Z0 whole entry): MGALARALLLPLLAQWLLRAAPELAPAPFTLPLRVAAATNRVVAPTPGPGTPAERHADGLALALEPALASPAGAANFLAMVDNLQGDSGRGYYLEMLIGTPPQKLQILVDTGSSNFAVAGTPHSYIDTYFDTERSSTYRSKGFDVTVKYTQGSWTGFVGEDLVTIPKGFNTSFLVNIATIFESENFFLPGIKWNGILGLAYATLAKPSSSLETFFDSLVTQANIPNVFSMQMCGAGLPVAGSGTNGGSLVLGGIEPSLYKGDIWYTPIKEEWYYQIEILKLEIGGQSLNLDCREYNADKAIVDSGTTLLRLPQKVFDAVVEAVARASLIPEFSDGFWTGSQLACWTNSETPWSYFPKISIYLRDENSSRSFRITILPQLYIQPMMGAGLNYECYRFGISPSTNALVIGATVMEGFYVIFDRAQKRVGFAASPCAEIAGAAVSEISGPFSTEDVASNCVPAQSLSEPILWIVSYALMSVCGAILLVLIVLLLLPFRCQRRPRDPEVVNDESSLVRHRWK
Description: BACE-2 Assay: The compounds of the invention were determined to be potent inhibitors of BACE-2 using the following assay. Inhibitor IC50s at purified human autoBACE-2 are determined in a time-resolved endpoint proteolysis assay that measures hydrolysis of the QSY7-[…]-Eu-amide FRET peptide substrate (BACE-HTRF assay). BACE-mediated hydrolysis of this peptide results in an increase in relative fluorescence (RFU) at 620 nm after excitation with 320 nm light Inhibitor compounds, prepared at 3× the desired final concentration in 1×BACE assay buffer (20 mM sodium acetate pH 5.0, 10% glycerol, 0.1% Brij-35) supplemented with 7.5% DMSO are pre-incubated with an equal volume of autoBACE-2 enzyme diluted in 1×BACE assay buffer (final enzyme concentration 1 nM) in black 384-well NUNC plates for 30 minutes at 30° C. […] DMSO is present at 5% final concentration in the assay. Following laser excitation of sample wells at 320 nm, the fluorescence signal at 620 nm is collected for 400 ms following a 50 μs delay on a RUBYstar HTRF plate reader (BMG Labtechnologies). Raw RFU data is normalized to maximum (1.0 nM BACE/DMSO) and minimum (no enzyme/DMSO) RFU values.

Cathepsin D, sequence (P07339 65-162 limits assumed): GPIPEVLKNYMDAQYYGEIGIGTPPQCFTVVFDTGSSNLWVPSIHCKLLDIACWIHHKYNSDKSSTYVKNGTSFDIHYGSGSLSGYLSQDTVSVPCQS
Cathepsin D, sequence (P07339 169-412 limits assumed): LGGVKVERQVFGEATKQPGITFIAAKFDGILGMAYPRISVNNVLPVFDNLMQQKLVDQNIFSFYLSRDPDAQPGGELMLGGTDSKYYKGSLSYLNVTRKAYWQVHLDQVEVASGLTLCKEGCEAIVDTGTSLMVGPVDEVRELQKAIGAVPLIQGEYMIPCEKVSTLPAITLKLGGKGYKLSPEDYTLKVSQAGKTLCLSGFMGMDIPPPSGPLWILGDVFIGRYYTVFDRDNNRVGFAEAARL
Beta-secretase 1, sequence (P56817 whole entry, the tested form may be a part): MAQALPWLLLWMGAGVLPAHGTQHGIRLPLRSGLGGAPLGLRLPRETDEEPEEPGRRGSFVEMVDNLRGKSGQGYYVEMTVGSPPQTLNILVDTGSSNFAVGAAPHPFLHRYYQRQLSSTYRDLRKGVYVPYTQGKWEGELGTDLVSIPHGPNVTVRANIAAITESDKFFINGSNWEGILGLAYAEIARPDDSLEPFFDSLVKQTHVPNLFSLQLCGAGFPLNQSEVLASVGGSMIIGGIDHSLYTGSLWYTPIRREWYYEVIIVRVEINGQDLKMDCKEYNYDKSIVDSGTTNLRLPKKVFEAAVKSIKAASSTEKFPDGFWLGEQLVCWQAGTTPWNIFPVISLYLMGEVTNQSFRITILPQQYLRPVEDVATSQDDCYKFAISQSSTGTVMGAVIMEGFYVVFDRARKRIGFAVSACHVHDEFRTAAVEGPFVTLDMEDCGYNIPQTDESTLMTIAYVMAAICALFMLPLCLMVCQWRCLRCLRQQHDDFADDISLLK

With `C[C@@]1(c2cc(Nc3ccnc4cc(F)cnc34)ncc2F)CS(=O)(=O)[C@@](C)(C2CC2)C(N)=N1`, the Ki in assay [1] worked out at 4900 nM; in assay [2] it was 8.5 nM; in assay [3] it was 1.7 nM.
The corresponding values for `CC#CCOc1cnc2c(Nc3cnc(F)c([C@]4(C)CS(=O)(=O)[C@@](C)(C5CC5)C(N)=N4)c3)nccc2c1` are more than 9400 nM, 2.8 nM and 120 nM.
The corresponding values for `COc1cnc2c(Nc3cc([C@]4(C)CS(=O)(=O)[C@@](C)(C5CC5)C(N)=N4)c(F)cn3)ccnc2n1` are more than 9400 nM, 5.2 nM and 2.2 nM.
Regarding `COc1cnc2c(Nc3ccc(F)c([C@]4(C)CS(=O)(=O)[C@@](C)(C5CC5)C(N)=N4)c3)ccnc2n1`, the Ki is more than 9400 nM in assay [1], 40 nM in assay [2] and 53 nM in assay [3].
For the molecule `C[C@@]1(c2cc(Nc3nccc4cc(F)cnc34)ncc2F)CS(=O)(=O)[C@@](C)(C2CC2)C(N)=N1`, the Ki is more than 9400 nM in assay [1], 12 nM in assay [2] and 1 nM in assay [3].
As for `C[C@@]1(c2cc(Nc3ccnc4cccnc34)ncc2F)CS(=O)(=O)[C@@](C)(C2CC2)C(N)=N1`, the Ki was more than 9400 nM in assay [1], 59 nM in assay [2] and 3.6 nM in assay [3].
As for `CC#CCOc1cnc2c(Nc3cnc(F)c([C@]4(C)CS(=O)(=O)[C@@](C)(C5CC5)C(N)=N4)c3)nccc2n1`, the Ki in assay [1] is more than 9400 nM; in assay [2], 1.8 nM; in assay [3], 24 nM.
With `COc1cnc2c(Nc3ccc(F)c([C@]4(C)CS(=O)(=O)[C@@](C)(C5CC5)C(N)=N4)c3)ccnc2c1`, the values for the Ki in assay [1], in assay [2] and in assay [3] were more than 9400 nM, 27 nM and 20 nM, respectively.
The corresponding values for `C[C@@]1(c2cc(Nc3ncnc4cc(C#N)cnc34)ncc2F)CS(=O)(=O)[C@@](C)(C2CC2)C(N)=N1` are more than 9400 nM, 13 nM and 19 nM.
As to `C[C@@]1(c2cc(Nc3nccc4cc(C#N)cnc34)ccc2F)CS(=O)(=O)[C@@](CF)(C2CC2)C(N)=N1`, the Ki in assay [1] is 563 nM; in assay [2], 1.3 nM; in assay [3], 0.6 nM.
Consider `CC#CCOc1cnc2c(Nc3cc([C@]4(C)CS(=O)(=O)[C@@](C)(C5CC5)C(N)=N4)c(F)cn3)nccc2n1`, for which the Ki was more than 9400 nM in assay [1], 1.5 nM in assay [2] and 1.2 nM in assay [3].

The values are drawn from ChEMBL document CHEMBL5726333, “C2-carbocyclic iminothiazine dioxides as BACE inhibitors, compositions, and their use” (2017).
